Data from patent publication US12508280B2, “Formulations for improving gut health” (DSM IP ASSETS B.V., priority 2018, dated 2025).

What was measured:
caecal contents = assay: In vitro gas production with caecal contents; type: cell-based, pigs
Procedure: After 30 days of adaptation, animals were slaughtered. […] Regarding the caecal contents, one part was immediately sampled, dispensed in 20 ml tubes, frozen in liquid nitrogen and stored at −80° C. to use as frozen inoculum for in vitro gas production studies. The other part was directly used as fresh fermentation inoculum.
The microbial fermentation pattern of caecal contents was studied in vitro by the gas production technique (Theodorou et al., 1994. Anim Feed Sci Technol 48:185-1-97). […] Firstly, triplicate glass bottles (110 mL total volume) for each treatment were filled with 56 mL incubation solution. Caecal contents of each of the 3 pigs for each treatment were mixed 2:1 with the incubation solution under CO2 atmosphere and homogenized for few minutes with waring blender (ceacal contents implies a 0.20 of total incubation solution). Then, 24 mL of the mixture were added to each bottle to complete the 80 mL total liquid volume. In addition, triplicate bottles without substrate were also included as blanks. Bottles were sealed under a CO2 stream and incubated at 39° C. for 12 h. Pressure was recorded every two hours throughout the incubation period, by means of an HD 2124.02 manometer fitted with a TP804 pressure gauge (Delta Ohm, Caselle di Selvazzano, Italy). Readings were converted into volume by a pre-established linear regression equation between the pressure recorded in the same bottles under the same conditions and known air volumes (n=103; R2=0.996). The gas volume recorded for each incubation time was expressed per unit of incubated organic matter (OM). Methane (CH4) concentration was measured on every 6 h interval. At 6 and 12 h incubation samples were collected and either acidified 1:1 with 0.1N HCl or added to 0.5 ml of a deproteinizing mixture of 0.5 M PO4H3 with 2 mg/ml 4-methyl valeric acid, that were stored at −20° C. for determination of ammonia and volatile fatty acid (VFA) concentration, respectively. Note that the procedure of the in vitro gas production was the same for both fresh inocula and frozen inocula, with the only difference that the frozen samples of caecal contents were previously maintained at 38° C. for 5 min for thawing.
For gas production, results were analyzed for each incubation time as a split-plot design, considering the donor pig as a block, the contents (fresh vs. frozen) as the main plot and the treatment as the subplot. […] Differences were considered significant when P<0.05, and a trend for significance was considered when 0.05 ? P<0.10 and, when significant, differences were compared by the Tukey t test at P<0.05.

[1] = test system: Co-cultures of Caco-2 and HT29-MTX-E12 cells; assay: Barrier integrity (TEER), healthy gut model; type: cell-based; details: 48 h minus 0 h fermentation samples, vs corresponding control
Procedure: Co-cultures of Caco-2 and HT29-MTX-E12 cells were used to assess the protective effect of the supernatants before (0 h) and after fermentation (48 h) for both sets of in vitro experiments above.
CaCo-2 ECACC 86010202 and HT29-MTX-E12 ECACC 12040401 cells (both from European Collection of Cell Cultures, Salisbury, UK) were both cultured at 37° C., in atmosphere of 5% CO2 in DMEM medium supplemented with 4.5 g/L D-Glucose, 4 mM L-Glutamine, 1 mM Sodium Pyruvate, 1% MEM Non-Essential Amino Acids, 50 μg/mL Gentamicin (Life Technologies Europe B.V., Zug, Switzerland) and 10% heat-inactivated FBS (Sigma-Aldrich, Buchs, Switzerland). Sub-confluent cells were trypsinized using 0.25% Trypsin/EDTA (Life Technologies Europe B.V., Zug, Switzerland) and passaged at a ratio of 1:5-1:10 twice a week. Cells between passages 55 and 85 were used for this study.
Cells were seeded at a density of 20000 cells/well in a 7:3 ratio (Caco-2:HT29-MTX-E12) in Corning HTS Transwell-24 system PET membranes, 0.4 μM pore size, cell growth area 0.33 cm2/well (Corning BV, Amsterdam, Netherlands) and cultured as described above. Media was changed every second to third day.
For both sets of in vitro experiments, after cells being 13 days in culture, initial transepithelial electrical resistance (TEER) readings were obtained using an EVOM2 Voltohmmeter (EVOM, World Precision Instruments, Berlin) equipped with STX100 Electrodes. TEER values correlate with the tightness of the confluent monolayer (Srinivasan et al. 2015).
The background TEER (insert) was subtracted from total TEER (cell monolayer plus insert) to yield the monolayer resistance and then normalized to surface area by multiplying with the area of the insert (Srinivasan et al. 2015). The integrity of the monolayer was determined at basal level by measuring TEER. A TEER of 300 Ωcm2 was regarded as a tight monolayer (see results section). Afterwards, the cells were treated with sterile filtered fermentation supernatants or fermentation medium as a control (diluted 1:20 in growth media). After 24 h incubation the resistance across each cell monolayer was measured again and the percentage change in TEER compared to initial TEER for each insert was calculated to represent a healthy gut model. All TEER measurements were done by placing the plates containing the inserts on a 37° C. warming plate and were performed in the same duration.

[2] = test system: genes involved in Acetyl-CoA fermentation to Butyrate pathway; assay: Shotgun sequencing functional analysis: butyrate pathway genes (first set); type: cell-based, human; details: 0.2× dose; after 24 h fermentation; vs corresponding control
[3] = test system: fecal microbial community; assay: Microbiome composition by shotgun sequencing: alpha diversity (first set); type: cell-based, human; details: after 24 h fermentation, vs corresponding control

Compound: Cc1cc2nc3c(=O)[nH]c(=O)nc-3n(C[C@H](O)[C@H](O)[C@H](O)CO)c2cc1C [Vitamin B2, riboflavin]
- CH4 production as volume per unit of incubation substrate (caecal contents; 6 and 12 h incubation, ranking, no significant differences): lowest accumulate CH4
- concentration of total VFA, molar proportions of VFA, ammonia concentration (caecal contents; among treatments): No differences were recorded
- CH4 proportion of total gas (caecal contents; up to 12 h incubation, numerical, no significant differences (P>0.05)): the lowest
- volume of gas (caecal contents; vs control, 4, 10 and 12 h incubation, P<0.05): higher

Compound: Vitamin E
- TEER, healthy gut cellular model ([1]; 1× dose): increase TEER
- TEER, healthy gut cellular model ([1]; 5× dose): increase TEER
- relative abundance of genes involved in Acetyl-CoA fermentation to Butyrate pathway [2]: increase relative abundance
- microbiome alpha diversity (Shannon diversity index) ([3]; 0.2× dose): increase microbiome diversity
- microbiome alpha diversity (Shannon diversity index) ([3]; 1× dose): increase microbiome diversity
- microbiome alpha diversity (Shannon diversity index) ([3]; 5× dose): increase microbiome diversity
